Laboratory results reported in ChEMBL document CHEMBL3885861, “Open TG-GATES”.

Organism: Rattus norvegicus
Assay: Open TG-GATES - Regimen: Daily Repeat
Assay type: toxicity, organism-based, Sprague-Dawley
Set-up: regimen Daily Repeat, gender Male, age 6 weeks
Details: in vivo, po, 60 mg/kg, […], route gavage, dose level Middle; for KIDNEY_L / KIDNEY_R / KIDNEY_TOTAL: tissue Kidney; for LIVER: tissue Liver; for A/G / ALP / ALT / AST / BUN / CRE / Ca / Cl / DBIL / GLC / IP / K / LDH / Na / PL / RALB / TBIL / TC / TG / TP / gamma-GTP: tissue Plasma

## CCc1oc2ccccc2c1C(=O)c1cc(Br)c(O)c(Br)c1 [BENZBROMARONE]
Tissue Blood, time 28 day
  Lym: 84.2%
  MCH: 19.3 pg
  MCHC: 33.1%
  MCV: 58.2 fL
  Mono: 6%
  Neu: 8.8%
  PT: 12.3 s
  Plat: 107.4 x10_4/uL
  RBC: 787.4 x10_4/ul
  Ret: 2.8%
  WBC: 139.8 x10_2/uL
Time 7 day
  KIDNEY_L: 1.2 g
  KIDNEY_R: 1.2 g
  KIDNEY_TOTAL: 2.4 g
  LIVER: 16.1 g
  A/G: 2.4
  ALP: 869.6 IU/L
  ALT: 28 IU/L
  AST: 57 IU/L
  BUN: 20 mg/dL
  CRE: 0.6 mg/dL
  Ca: 10.5 mg/dL
  Cl: 107.4 meq/L
  DBIL: 0 mg/dL
  GLC: 186.8 mg/dL
  IP: 7.8 mg/dL
  K: 5 meq/L
  LDH: 96.2 IU/L
  Na: 139.7 meq/L
  PL: 154 mg/dL
  RALB: 4.4 g/dL
  TBIL: 0.3 mg/dL
  TC: 82.6 mg/dL
  TG: 80 mg/dL
  TP: 6.3 g/dL
  gamma-GTP: 0.2 IU/L
Time 14 day
  KIDNEY_L: 1.4 g
  KIDNEY_R: 1.3 g
  KIDNEY_TOTAL: 2.7 g
  LIVER: 20.1 g
  A/G: 2.1
  ALP: 872.6 IU/L
  ALT: 29.4 IU/L
  AST: 57.8 IU/L
  BUN: 20.2 mg/dL
  CRE: 0.6 mg/dL
  Ca: 10.5 mg/dL
  Cl: 106.3 meq/L
  DBIL: 0.01 mg/dL
  GLC: 191.4 mg/dL
  IP: 7.6 mg/dL
  K: 4.7 meq/L
  LDH: 97.4 IU/L
  Na: 140.3 meq/L
  PL: 156.4 mg/dL
  RALB: 4.5 g/dL
  TBIL: 0.3 mg/dL
  TC: 85.6 mg/dL
  TG: 85.8 mg/dL
  TP: 6.6 g/dL
  gamma-GTP: 0.8 IU/L
Time 28 day
  KIDNEY_L: 1.5 g
  KIDNEY_R: 1.5 g
  KIDNEY_TOTAL: 2.9 g
  LIVER: 21.5 g
  A/G: 1.9
  ALP: 605.2 IU/L
  ALT: 34 IU/L
  AST: 54 IU/L
  BUN: 19.2 mg/dL
  CRE: 0.6 mg/dL
  Ca: 9.9 mg/dL
  Cl: 108.4 meq/L
  DBIL: 0.016 mg/dL
  GLC: 185.2 mg/dL
  IP: 6.9 mg/dL
  K: 4.5 meq/L
  LDH: 147.4 IU/L
  Na: 141 meq/L
  PL: 144.6 mg/dL
  RALB: 4.3 g/dL
  TBIL: 0.2 mg/dL
  TC: 84.4 mg/dL
  TG: 75.4 mg/dL
  TP: 6.6 g/dL
  gamma-GTP: 1 IU/L
